According to ChEMBL document CHEMBL3137667, “[Drug-induced liver injury; fourteenth updated edition of the bibliographic database of liver injuries and related drugs]” (Gastroenterol Clin Biol, 2004):

Tests used:
[1] = Highest frequency of moderate liver toxicity observed during clinical trials, expressed as a percentage. [column '% BIOL' in source]; settings: human
[2] = Highest frequency of acute liver toxicity observed during clinical trials, expressed as a percentage. [column '% AIGUE' in source]; settings: human
[3] = Presence of at least one case with successful reintroduction. [column 'REINT' in source]; settings: human
[4] = Comments (NB not yet translated). [column 'COMMENTAIRES' in source]; settings: human
[5] = Times to onset, minimal and maximal, observed in the indexed observations. [column 'DELAI' in source]; settings: human
[6] = Proposed mechanism(s) of liver damage. [column 'MEC' in source]; settings: human
[7] = human, serum
[8] = human, serum; remark: listed apart in the source
[9] = human
[10] = human; remark: listed apart in the source
[11] = human; remark: listed apart in the source
[12] = human, serum, 4383 h
[13] = human; remark: listed apart in the source
[14] = human; remark: listed apart in the source
[15] = human; remark: listed apart in the source
[16] = human; remark: listed apart in the source
[17] = human; remark: listed apart in the source
[18] = human; remark: listed apart in the source
[19] = human; remark: listed apart in the source
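Wherever Hepatotoxicity (association with vascular disease) is given: count of indexed literature references reporting vascular liver injury in humans, e.g. peliosis hepatitis, hepatic veno-occlusive disease or Budd-Chiari syndrome.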
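Wherever Hepatotoxicity (benign tumour) is given: value is a count of indexed literature references citing a benign tumour confirmed by histopathology.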
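Wherever Hepatotoxicity (choleostasis) is given: human cholestatic liver injury, shown by histopathology or by peak ALT or AST elevation over alkaline phosphatase ratio below 2, value counts indexed literature reports.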
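Wherever Hepatotoxicity (chronic liver disease) is given: chronic liver injury confirmed by histopathology or persistently raised serum aminotransferase activity beyond 6 months, value given as the count of indexed literature references.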
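Wherever Hepatotoxicity (cirrhosis) is given: value is a count of indexed literature references reporting cirrhosis confirmed by histopathology.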
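Wherever Hepatotoxicity (cytolytic) is given: human cytolytic liver injury, shown by histopathology or by a ratio above 5 of peak ALT or AST elevation to alkaline phosphatase elevation, value counts indexed references.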
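Wherever Hepatotoxicity (granulomatous hepatitis) is given: value is a count of indexed literature references reporting granulomatous liver disease confirmed by histopathology.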
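Wherever Hepatotoxicity (malignant tumour) is given: malignant tumour confirmed by histopathology, value gives the count of indexed literature references reporting it.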
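Wherever Hepatotoxicity (severe hepatitis) is given: human clinical data: severe hepatitis, meaning potentially life-threatening liver failure or clinically observed cases, the value counts how many indexed literature references report it.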
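Wherever Hepatotoxicity (steatosis) is given: steatosis confirmed by histopathology, value is the count of indexed references.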

FC(F)OC(F)(F)C(F)Cl (configuration not stated)
Hepatotoxicity (moderate) [1]: 58% | Hepatotoxicity (acute) [2]: 0.7% | Hepatotoxicity (successful reintroduction) [3]: yes | Hepatotoxicity (comment) [4]: RC/HALOTHANE AC_ANTI-TFA | Hepatotoxicity (time to onset) [5]: 2 hours - 19 days | Hepatotoxicity (mechanism) [6]: Allergic, Reactive metabolite | Hepatotoxicity (moderate) [7]: 15 | Hepatotoxicity (acute) [8]: 21 | Hepatotoxicity (cytolytic) [9]: 18 | Hepatotoxicity (choleostasis) [10]: 7 | Hepatotoxicity (severe hepatitis) [11]: 10 | Hepatotoxicity (chronic liver disease) [12]: 0 | Hepatotoxicity (cirrhosis) [13]: 0 | Hepatotoxicity (granulomatous hepatitis) [14]: 1 | Hepatotoxicity (association with vascular disease) [15]: 0 | Hepatotoxicity (steatosis) [16]: 2 | Hepatotoxicity (malignant tumour) [17]: 0 | Hepatotoxicity (benign tumour) [18]: 0 | Hepatotoxicity (animal toxicity known) [19]: yes

O=C(O)COc1ccc(C(=O)c2cccs2)c(Cl)c1Cl
Hepatotoxicity (moderate) ([1]; Liver): 7% | Hepatotoxicity (acute) ([2]; Liver): 0% | Hepatotoxicity (successful reintroduction) [3]: yes | Hepatotoxicity (comment) [4]: AC_ANTI-MFR2 | Hepatotoxicity (time to onset) [5]: 2 weeks - 1 year | Hepatotoxicity (mechanism) [6]: Allergic, Reactive metabolite | Hepatotoxicity (moderate) [7]: 9 | Hepatotoxicity (acute) [8]: 18 | Hepatotoxicity (cytolytic) [9]: 18 | Hepatotoxicity (choleostasis) [10]: 8 | Hepatotoxicity (severe hepatitis) ([11]; Liver): 9 | Hepatotoxicity (chronic liver disease) [12]: 7 | Hepatotoxicity (cirrhosis) [13]: 4 | Hepatotoxicity (granulomatous hepatitis) [14]: 0 | Hepatotoxicity (association with vascular disease) [15]: 0 | Hepatotoxicity (steatosis) [16]: 1 | Hepatotoxicity (malignant tumour) [17]: 0 | Hepatotoxicity (benign tumour) [18]: 0 | Hepatotoxicity (animal toxicity known) [19]: yes

CCCCc1oc2ccccc2c1C(=O)c1cc(I)c(OCCN(CC)CC)c(I)c1 [AMIODARONE]
Hepatotoxicity (moderate) ([1]; Liver): 55% | Hepatotoxicity (acute) ([2]; Liver): 6% | Hepatotoxicity (successful reintroduction) [3]: yes | Hepatotoxicity (comment) [4]: RC/AJMALINE #S.REYE | Hepatotoxicity (time to onset) [5]: 1 day - 10 years | Hepatotoxicity (mechanism) [6]: Allergic, Dose-dependant | Hepatotoxicity (moderate) [7]: 55 | Hepatotoxicity (acute) [8]: 34 | Hepatotoxicity (cytolytic) ([9]; Liver): 20 | Hepatotoxicity (choleostasis) ([10]; Liver): 6 | Hepatotoxicity (severe hepatitis) ([11]; Liver): 14 | Hepatotoxicity (chronic liver disease) [12]: 8 | Hepatotoxicity (cirrhosis) [13]: 17 | Hepatotoxicity (granulomatous hepatitis) ([14]; Liver): 2 | Hepatotoxicity (association with vascular disease) [15]: 0 | Hepatotoxicity (steatosis) [16]: 4 | Hepatotoxicity (malignant tumour) [17]: 0 | Hepatotoxicity (benign tumour) [18]: 0 | Hepatotoxicity (animal toxicity known) [19]: yes

CN(C)CCC=C1c2ccccc2CCc2ccccc21 [AMITRIPTYLINE]
Hepatotoxicity (moderate) [1]: 26% | Hepatotoxicity (acute) [2]: 3% | Hepatotoxicity (successful reintroduction) [3]: yes | Hepatotoxicity (comment) [4]: CHOLESTASE_PROLONGEE CHOLANGITE | Hepatotoxicity (time to onset) [5]: 1 week - 10 months | Hepatotoxicity (mechanism) [6]: Allergic | Hepatotoxicity (moderate) [7]: 11 | Hepatotoxicity (acute) [8]: 18 | Hepatotoxicity (cytolytic) [9]: 9 | Hepatotoxicity (choleostasis) [10]: 12 | Hepatotoxicity (severe hepatitis) [11]: 6 | Hepatotoxicity (chronic liver disease) [12]: 0 | Hepatotoxicity (cirrhosis) [13]: 0 | Hepatotoxicity (granulomatous hepatitis) [14]: 0 | Hepatotoxicity (association with vascular disease) [15]: 0 | Hepatotoxicity (steatosis) [16]: 0 | Hepatotoxicity (malignant tumour) [17]: 0 | Hepatotoxicity (benign tumour) [18]: 0 | Hepatotoxicity (animal toxicity known) [19]: yes

CN1CCN(C2=Nc3cc(Cl)ccc3Nc3ccccc32)CC1 [CLOZAPINE]
Hepatotoxicity (moderate) [1]: 60% | Hepatotoxicity (acute) [2]: 1% | Hepatotoxicity (successful reintroduction) [3]: yes | Hepatotoxicity (comment) [4]: CHOLANGITE | Hepatotoxicity (time to onset) [5]: 3 days - 6 weeks | Hepatotoxicity (mechanism) [6]: Dose-dependant | Hepatotoxicity (moderate) [7]: 26 | Hepatotoxicity (cytolytic) [9]: 8 | Hepatotoxicity (choleostasis) [10]: 4 | Hepatotoxicity (severe hepatitis) [11]: 1 | Hepatotoxicity (chronic liver disease) [12]: 0 | Hepatotoxicity (cirrhosis) [13]: 0 | Hepatotoxicity (granulomatous hepatitis) [14]: 0 | Hepatotoxicity (association with vascular disease) [15]: 0 | Hepatotoxicity (steatosis) [16]: 0 | Hepatotoxicity (malignant tumour) [17]: 0 | Hepatotoxicity (benign tumour) [18]: 0 | Hepatotoxicity (animal toxicity known) [19]: A

COc1cccc2c1C(=O)c1c(O)c3c(c(O)c1C2=O)C[C@@](O)(C(=O)CO)C[C@@H]3O[C@H]1C[C@H](N)[C@H](O)[C@H](C)O1 [DOXORUBICIN]
Hepatotoxicity (moderate) [1]: 84.6% | Hepatotoxicity (successful reintroduction) [3]: yes | Hepatotoxicity (comment) [4]: I/MERCAPTOPURINE/VINBLASTINE CHOLANGITE MVO REACTIVATION_HVB | Hepatotoxicity (time to onset) [5]: 1 week - 3 weeks | Hepatotoxicity (mechanism) [6]: Reactive metabolite, Dose-dependant | Hepatotoxicity (moderate) [7]: 8 | Hepatotoxicity (acute) [8]: 7 | Hepatotoxicity (cytolytic) [9]: 4 | Hepatotoxicity (choleostasis) [10]: 3 | Hepatotoxicity (severe hepatitis) [11]: 4 | Hepatotoxicity (chronic liver disease) [12]: 0 | Hepatotoxicity (cirrhosis) [13]: 0 | Hepatotoxicity (granulomatous hepatitis) [14]: 0 | Hepatotoxicity (association with vascular disease) [15]: 5 | Hepatotoxicity (steatosis) [16]: 0 | Hepatotoxicity (malignant tumour) [17]: 1 | Hepatotoxicity (benign tumour) [18]: 0 | Hepatotoxicity (animal toxicity known) [19]: yes

CN(C)CCCN1c2ccccc2CCc2ccccc21 [IMIPRAMINE]
Hepatotoxicity (successful reintroduction) [3]: yes | Hepatotoxicity (comment) [4]: RC/DESPRAMINE CHOLESTASE_PROLONGEE | Hepatotoxicity (time to onset) [5]: 1 week - 1 year | Hepatotoxicity (mechanism) [6]: Allergic, Reactive metabolite | Hepatotoxicity (cytolytic) [9]: 9 | Hepatotoxicity (choleostasis) [10]: 13 | Hepatotoxicity (chronic liver disease) [12]: 1 | Hepatotoxicity (cirrhosis) [13]: 0 | Hepatotoxicity (granulomatous hepatitis) [14]: 0 | Hepatotoxicity (association with vascular disease) [15]: 0 | Hepatotoxicity (steatosis) [16]: 0 | Hepatotoxicity (malignant tumour) [17]: 0 | Hepatotoxicity (benign tumour) [18]: 0 | Hepatotoxicity (animal toxicity known) [19]: yes

O=C1CN(/N=C/c2ccc([N+](=O)[O-])o2)C(=O)N1 [NITROFURANTOIN]
Hepatotoxicity (moderate) ([1]; Liver): 0% | Hepatotoxicity (acute) ([2]; Liver): 0% | Hepatotoxicity (successful reintroduction) [3]: yes | Hepatotoxicity (comment) [4]: AC_ANTI-ML/-N RC/FURAZOLIDONE/NIFUROXIME CHOLANGITE | Hepatotoxicity (time to onset) [5]: 2 days - 10 years | Hepatotoxicity (mechanism) ([6]; Liver): Allergic | Hepatotoxicity (moderate) [7]: 2 | Hepatotoxicity (cytolytic) ([9]; Liver): 9 | Hepatotoxicity (choleostasis) ([10]; Liver): 27 | Hepatotoxicity (severe hepatitis) ([11]; Liver): 8 | Hepatotoxicity (chronic liver disease) [12]: 37 | Hepatotoxicity (cirrhosis) [13]: 7 | Hepatotoxicity (granulomatous hepatitis) ([14]; Liver): 2 | Hepatotoxicity (association with vascular disease) [15]: 0 | Hepatotoxicity (steatosis) [16]: 1 | Hepatotoxicity (malignant tumour) [17]: 1 | Hepatotoxicity (benign tumour) [18]: 1 | Hepatotoxicity (animal toxicity known) [19]: yes

CNC(=C[N+](=O)[O-])NCCSCc1ccc(CN(C)C)o1 [RANITIDINE]
Hepatotoxicity (moderate) [1]: 18.6% | Hepatotoxicity (acute) [2]: 0% | Hepatotoxicity (successful reintroduction) [3]: yes | Hepatotoxicity (comment) [4]: AC_ANTI-ML/-N CHOLANGITE | Hepatotoxicity (time to onset) [5]: 4 days - 3 months | Hepatotoxicity (mechanism) [6]: Allergic, Dose-dependant, Toxic Metabolite | Hepatotoxicity (moderate) [7]: 37 | Hepatotoxicity (cytolytic) [9]: 12 | Hepatotoxicity (choleostasis) [10]: 15 | Hepatotoxicity (severe hepatitis) [11]: 2 | Hepatotoxicity (chronic liver disease) [12]: 1 | Hepatotoxicity (cirrhosis) [13]: 0 | Hepatotoxicity (granulomatous hepatitis) [14]: 1 | Hepatotoxicity (association with vascular disease) [15]: 0 | Hepatotoxicity (steatosis) [16]: 1 | Hepatotoxicity (malignant tumour) [17]: 0 | Hepatotoxicity (benign tumour) [18]: 0 | Hepatotoxicity (animal toxicity known) [19]: yes
